According to patent US20170045513A1, “METHODS OF DIAGNOSING CELIAC DISEASE USING IP-10” (ImmusanT, Inc., priority 2014, published 2017):
Non-standard residues stand in square brackets, D forms with d. pGlu = O=C1CC[C@@H](C(=O)O)N1

Tested on: gluten-reactive T cells
Test: 96-well plate whole blood cytokine release, IP-10 by MAGPIX multiplex bead assay
Type: cell-based, human
Conditions: for Percent of maximal response to individual gluten peptides, IP-10: after oral gluten challenge; for IP-10 WB MAGPIX % max Mean: n = 10, blood after oral gluten challenge, individual peptides 5 μM (Peptide 2* of P14, Pepscan: 10 μg/mL (5.45 μM))

| Substance | Percent of maximal response to individual gluten peptides, IP-10 (Subject 1, Max. 2331 pg/mL) | Percent of maximal response to individual gluten peptides, IP-10 (Subject 2, Max. 3646 pg/mL) | Percent of maximal response to individual gluten peptides, IP-10 (Subject 3, Max. 9492 pg/mL) | Percent of maximal response to individual gluten peptides, IP-10 (Subject 4, Max. 9463 pg/mL) | Percent of maximal response to individual gluten peptides, IP-10 (Subject 5, Max. 9336 pg/mL) | Percent of maximal response to individual gluten peptides, IP-10 (Subject 6, Max. 5863 pg/mL) | Percent of maximal response to individual gluten peptides, IP-10 (Subject 7, Max. 2330 pg/mL) | Percent of maximal response to individual gluten peptides, IP-10 (Subject 8, Max. 4019 pg/mL) | Percent of maximal response to individual gluten peptides, IP-10 (Subject 9, Max. 8349 pg/mL) | Percent of maximal response to individual gluten peptides, IP-10 (Subject 10, Max. 8922 pg/mL) | IP-10 WB MAGPIX % max Mean [% max] | whole blood IP-10 release relative to that stimulated by Peptide 14 (whole blood incubations after oral gluten challenge) |
| --- | --- | --- | --- | --- | --- | --- | --- | --- | --- | --- | --- | --- |
| (pE)PEQPIPEQPQPYPQQ-amide ([pGlu]PEQPIPEQPQPYPQQ-NH2; SMILES CC[C@H](C)[C@H](NC(=O)[C@@H]1CCCN1C(=O)[C@H](CCC(N)=O)NC(=O)[C@H](CCC(=O)O)NC(=O)[C@@H]1CCCN1C(=O)[C@@H]1CCC(=O)N1)C(=O)N1CCC[C@H]1C(=O)N[C@@H](CCC(=O)O)C(=O)N[C@@H](CCC(N)=O)C(=O)N1CCC[C@H]1C(=O)N[C@@H](CCC(N)=O)C(=O)N1CCC[C@H]1C(=O)N[C@@H](Cc1ccc(O)cc1)C(=O)N1CCC[C@H]1C(=O)N[C@@H](CCC(N)=O)C(=O)N[C@@H](CCC(N)=O)C(N)=O) [Peptide 3] | 51 % of max | 14 % of max | ≥ 100 % of max | ≥ 100 % of max | 53 % of max | 43 % of max | 5 % of max | 100 % of max | 85 % of max | ≥ 100 % of max | 65 | one-quarter less |
| (pE)LQPFPQPELPYPQPQ-amide ([pGlu]LQPFPQPELPYPQPQ-NH2; SMILES CC(C)C[C@H](NC(=O)[C@@H]1CCC(=O)N1)C(=O)N[C@@H](CCC(N)=O)C(=O)N1CCC[C@H]1C(=O)N[C@@H](Cc1ccccc1)C(=O)N1CCC[C@H]1C(=O)N[C@@H](CCC(N)=O)C(=O)N1CCC[C@H]1C(=O)N[C@@H](CCC(=O)O)C(=O)N[C@@H](CC(C)C)C(=O)N1CCC[C@H]1C(=O)N[C@@H](Cc1ccc(O)cc1)C(=O)N1CCC[C@H]1C(=O)N[C@@H](CCC(N)=O)C(=O)N1CCC[C@H]1C(=O)N[C@@H](CCC(N)=O)C(N)=O) [Peptide 1] | 100 % of max | 100 % of max | ≥ 100 % of max | 96 % of max | 14 % of max | 23 % of max | 39 % of max | 3 % of max | 75 % of max | 34 % of max | 58 |  |
| (pE)QPFPQPEQPFPLQPEQP-amide ([pGlu]QPFPQPEQPFPLQPEQP-NH2; SMILES CC(C)C[C@H](NC(=O)[C@@H]1CCCN1C(=O)[C@H](Cc1ccccc1)NC(=O)[C@@H]1CCCN1C(=O)[C@H](CCC(N)=O)NC(=O)[C@H](CCC(=O)O)NC(=O)[C@@H]1CCCN1C(=O)[C@H](CCC(N)=O)NC(=O)[C@@H]1CCCN1C(=O)[C@H](Cc1ccccc1)NC(=O)[C@@H]1CCCN1C(=O)[C@H](CCC(N)=O)NC(=O)[C@@H]1CCC(=O)N1)C(=O)N[C@@H](CCC(N)=O)C(=O)N1CCC[C@H]1C(=O)N[C@@H](CCC(=O)O)C(=O)N[C@@H](CCC(N)=O)C(=O)N1CCC[C@H]1C(N)=O) [Peptide 6] | 34 % of max | 21 % of max | ≥ 100 % of max | ≥ 100 % of max | 8 % of max | 0 % of max | 1 % of max | 8 % of max | ≥ 100 % of max | 56 % of max | 43 |  |
